Laboratory results: US20080008707A1, “Denatured collagen peptides and uses thereof” (Cell-Matrix, Inc., priority 2006, published 2008)
Marks after values point to notes of the source that are not given here. Values belong to the substance of their own block, whether it stands above or below them. Square brackets hold non-standard residues; d marks the D form. Ends that are not written are not given here. Hyp = O=C(O)[C@@H]1C[C@@H](O)CN1

What was measured:
[1] = tested on: HUI77 binding to denatured collagen IV; assay: Competition ELISA: synthetic peptides blocking HUI77 binding to heat denatured collagen IV; set-up: species or system human
Experimental: (§1) The ELISA was conducted as follows: wells of a 96-well microtiter plate (Immulon, 4 HBX flat-bottomed, Thermo Electron Corporation, Waltham, Mass.) were coated with 100 μL/well of dn-collagen IV at 10 μg/mL in Phosphate Buffered Saline (PBS) overnight at 4° C. The plate was washed 3 times (3×) with PBS containing 0.05% (v/v) Tween-20 (PBST) using an automated plate washer.
(§2) The plate was blocked by adding 300 μL/well of 1% BSA (w/v) in PBS for 1 hour at 25° C. followed by washing 3× in PBST as above.
(§3) Solutions of D93 or HUI77 were prepared with various concentrations of peptide or antibody inhibitor and incubate for 15 minutes. D93 or HUI77 was prepared at 200 ng/mL in 1% BSA/PBS.
(§4) For antibody blocking studies using synthetic peptides: peptide inhibitor stock solutions were prepared at 2 mM, 0.2 mM, 0.02 mM, and 0.002 mM in 1% BSA/PBS. 500 μL of a 2 mM peptide solution in 1% BSA/PBS was prepared and diluted 1:10 in 500 μL a total of three times to make peptide inhibitor concentrations.
(§5) 200 μL of D93 or HUI77 at 200 ng/mL solution was combined with 200 μL of peptide or antibody inhibitor solution and incubated for 15 minutes at room temperature.
(§6) D93 or HUI77 with various concentrations of inhibitors (2 mM, 0.2 mM, 0.02 mM, and 0.002 mM) were added to microplate wells and incubated for 1 hour at 25° C. The plate was washed 3× in PBST as above.
(§7) To each microtiter plate well, 100 μL of diluted anti-human IgG or anti-mouse IgM conjugated to horseradish peroxidase (HRP) in PBST was added and incubated for one hour at 25° C.: (a) for D93: Goat anti-human IgG-HRP (Jackson ImmunoResearch, Catalog No. 109-035-088) was used at 1:20,000 and (b) for HUI77: Goat anti-mouse IgM-HRP was used at 1:4,000. Plates were washed 3× in PBST as above.
(§8) Tetramethylbenzidine (TMB) substrate (100 μL; Pierce Chemicals)) was added to wells and the plates were allowed to develop at room temperature for 15 minutes in the dark. Substrate development was stopped by adding 50 μL/well of 2N H2SO4. The microtiter […] plates were read at 450 nm within five minutes of adding the H2SO4. Reactivity was measured with a microplate reader (Molecular Devices, Sunnyvale, Calif.) at a wavelength of 450 nm and analyzed using SOFTMax® PRO4.0 (Molecular Devices). All samples were tested in triplicate.
(§9) Individual peptides with amino acid substitutions and deletions were also synthesized based on the primary and secondary peptide arrays. […] The inhibitory activity of the individual peptides was tested by ELISA as previously described to measure binding of D93 or HUI77 to denatured collagen where peptides and antibodies were prepared at a 2× concentration and pre-incubated for 15 minutes prior to adding to microtiter plates coated with dn-collagen.
(§10) 96-well plates were coated with 100 μL/well of denatured (dn) collagen IV at 10 μg/mL in phosphate buffered saline (PBS) overnight at 4° C. followed by washing the plates in an automated plate washer 3 times in PBS containing 0.05% (v/v) Tween-20 (PBST). Non-specific binding was prevented by blocking the wells by adding 300 μL/well of 1% bovine serum albumin (BSA) (w/v) in PBS for 1 hour (hr) at 25° C. The plates were washed as above.
(§11) Solutions of D93 and HUI77 antibodies were prepared with various concentrations of inhibitor and incubated for 15 minutes. Briefly, 20 mLs of D93 or HUI77 were prepared at 200 ng/mL in 1% BSA/PBS. Solutions of peptide inhibitors (2 mM, 0.2 mM, […]) were prepared in 1% BSA/PBS. Equal volumes of antibodies and peptide inhibitors were combined: 200 μL of D93 or HUI77 (200 ng/mL solution) with 200 μL of each peptide solution.
(§12) 100 μL/well of D93 or HUI77 at 100 ng/mL with various concentrations of inhibitors were added to the wells in triplicate and incubated for 1 hour at 25° C. The plates were washed as described above.
(§13) 100 μL/well of secondary horseradish peroxidase (HRP)-conjugated antibody in PBST was added to each well and incubated for 1 hour (hr) at 25° C. […]

[2] = tested on: D93 binding to human denatured-collagen IV; assay: Competition ELISA: synthetic peptides blocking D93 binding to heat denatured collagen IV
Experimental: as §1, §2, §3, §4, §5, §6, §7, §8, §9, §10, §11, §12, §13

[3] = peptide inhibitor concentration 10 μM, asterisk (*): data from a separate assay
[4] = peptide inhibitor concentration 100 μM, asterisk (*): data from a separate assay
[5] = peptide inhibitor concentration 1000 μM, asterisk (*): data from a separate assay
[6] = peptide inhibitor concentration 10 μM, average of two studies
[7] = peptide inhibitor concentration 100 μM, average of two studies
[8] = peptide inhibitor concentration 1000 μM, average of two studies
[9] = peptide inhibitor concentration 1 μM, average of two studies, vs 1% BSA/PBS alone
[10] = peptide inhibitor concentration 10 μM, average of two studies, vs 1% BSA/PBS alone
[11] = peptide inhibitor concentration 100 μM, average of two studies, vs 1% BSA/PBS alone
[12] = peptide inhibitor concentration 1000 μM, average of two studies, vs 1% BSA/PBS alone

Substance: LPGFPGC [SEQ ID NO: 37, reference compound]
% INHIBITION OF BINDING OF HUI77 TO DENATURED COLLAGEN IV [1, 6]: 7% | % INHIBITION OF BINDING OF HUI77 TO DENATURED COLLAGEN IV [1, 7]: 7.5% | % INHIBITION OF BINDING OF HUI77 TO DENATURED COLLAGEN IV [1, 8]: 8.5% | % INHIBITION OF BINDING OF D93 TO HUMAN DENATURED-COLLAGEN IV [2, 9]: 8% | % INHIBITION OF BINDING OF D93 TO HUMAN DENATURED-COLLAGEN IV [2, 10]: 3.5% | % INHIBITION OF BINDING OF D93 TO HUMAN DENATURED-COLLAGEN IV [2, 11]: 1% | % INHIBITION OF BINDING OF D93 TO HUMAN DENATURED-COLLAGEN IV [2, 12]: 6.5%

Substance: LPGPPGPPG [SEQ ID NO: 22]
% INHIBITION OF BINDING OF HUI77 TO DENATURED COLLAGEN IV ([1]; peptide inhibitor concentration 100 μM, average of two studies, listed as 18 (22), 100 µM): 9% | % INHIBITION OF BINDING OF HUI77 TO DENATURED COLLAGEN IV ([1]; peptide inhibitor concentration 1000 μM, average of two studies, listed as 18 (22), 1000 µM): 6% | % INHIBITION OF BINDING OF D93 TO HUMAN DENATURED-COLLAGEN IV ([2]; peptide inhibitor concentration 1 μM, average of two studies, vs 1% BSA/PBS alone, listed as 18 (22), 1 µM): 6% | % INHIBITION OF BINDING OF D93 TO HUMAN DENATURED-COLLAGEN IV ([2]; peptide inhibitor concentration 10 μM, average of two studies, vs 1% BSA/PBS alone, listed as 18 (22), 10 µM): 5% | % INHIBITION OF BINDING OF D93 TO HUMAN DENATURED-COLLAGEN IV ([2]; peptide inhibitor concentration 100 μM, average of two studies, vs 1% BSA/PBS alone, listed as 18 (22), 100 µM): 3% | % INHIBITION OF BINDING OF D93 TO HUMAN DENATURED-COLLAGEN IV ([2]; peptide inhibitor concentration 1000 μM, average of two studies, vs 1% BSA/PBS alone, listed as 18 (22), 1000 µM): 17.5%

Results, then the substance that gave them:

% INHIBITION OF BINDING OF HUI77 TO DENATURED COLLAGEN IV [1, 3]: 10.2* % | % INHIBITION OF BINDING OF HUI77 TO DENATURED COLLAGEN IV [1, 4]: 0* % | % INHIBITION OF BINDING OF HUI77 TO DENATURED COLLAGEN IV [1, 5]: 3.7* % | % INHIBITION OF BINDING OF D93 TO HUMAN DENATURED-COLLAGEN IV ([2]; peptide inhibitor concentration 1 μM, asterisk (*): data from a separate assay): 5.4* % | % INHIBITION OF BINDING OF D93 TO HUMAN DENATURED-COLLAGEN IV [2, 3]: 7.8* % | % INHIBITION OF BINDING OF D93 TO HUMAN DENATURED-COLLAGEN IV [2, 4]: 8.3* % | % INHIBITION OF BINDING OF D93 TO HUMAN DENATURED-COLLAGEN IV [2, 5]: 11.6* %
Substance: LPGFPG [SEQ ID NO: 38, reference compound]

% INHIBITION OF BINDING OF HUI77 TO DENATURED COLLAGEN IV [1, 6]: 6% | % INHIBITION OF BINDING OF HUI77 TO DENATURED COLLAGEN IV [1, 7]: 9.5% | % INHIBITION OF BINDING OF HUI77 TO DENATURED COLLAGEN IV [1, 8]: 17.5% | % INHIBITION OF BINDING OF D93 TO HUMAN DENATURED-COLLAGEN IV [2, 9]: 8% | % INHIBITION OF BINDING OF D93 TO HUMAN DENATURED-COLLAGEN IV [2, 10]: 6.5% | % INHIBITION OF BINDING OF D93 TO HUMAN DENATURED-COLLAGEN IV [2, 11]: 6.5% | % INHIBITION OF BINDING OF D93 TO HUMAN DENATURED-COLLAGEN IV [2, 12]: 46.5%
Substance: LPGLPG (L[Hyp]GL[Hyp]G) [SEQ ID NO: 25]

% INHIBITION OF BINDING OF HUI77 TO DENATURED COLLAGEN IV [1, 6]: 6.5% | % INHIBITION OF BINDING OF HUI77 TO DENATURED COLLAGEN IV ([1]; peptide inhibitor concentration 100 μM, average of two studies, listed as 20 (21), 100 µM): 18% | % INHIBITION OF BINDING OF HUI77 TO DENATURED COLLAGEN IV ([1]; peptide inhibitor concentration 1000 μM, average of two studies, listed as 20 (21), 1000 µM): 86% | % INHIBITION OF BINDING OF D93 TO HUMAN DENATURED-COLLAGEN IV ([2]; peptide inhibitor concentration 1 μM, average of two studies, vs 1% BSA/PBS alone, listed as 20 (21), 1 µM): 13% | % INHIBITION OF BINDING OF D93 TO HUMAN DENATURED-COLLAGEN IV ([2]; peptide inhibitor concentration 10 μM, average of two studies, vs 1% BSA/PBS alone, listed as 20 (21), 10 µM): 35.5% | % INHIBITION OF BINDING OF D93 TO HUMAN DENATURED-COLLAGEN IV ([2]; peptide inhibitor concentration 100 μM, average of two studies, vs 1% BSA/PBS alone, listed as 20 (21), 100 µM): 85.5% | % INHIBITION OF BINDING OF D93 TO HUMAN DENATURED-COLLAGEN IV ([2]; peptide inhibitor concentration 1000 μM, average of two studies, vs 1% BSA/PBS alone, listed as 20 (21), 1000 µM): 92.5%
Substance: LPGPPGPPG (LPGP[Hyp]GP[Hyp]G) [SEQ ID NO: 21]
